“And” between values parts separate entries of the source, which are not always exact repeats. Identical values can stand only once. Toxic doses and inconclusive results are not listed.
System: BDF1 mice, P388 leukemia ip, median survival T/C
Assay: NCI In Vivo Anticancer Drug Screen. Data for tumor model P388 Leukemia (intraperitoneal) in B6D2F1 (BDF1) mice
Settings: endpoint: median survival time, higher = longer survival
Summary of the method: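 Steps: implant the tumour, treat one group with compound and another with vehicle, record survival, then divide treated by control.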

[1] = dose: 25.0 mg/kg/injection, schedule: Q04DX003 (ip), vehicle: saline with Tween-80
[2] = dose: 50.0 mg/kg/injection, schedule: Q01DX009 (ip), vehicle: saline with Tween-80
[3] = dose: 100.0 mg/kg/injection, schedule: Q01DX009 (ip), vehicle: saline with Tween-80
[4] = dose: 25.0 mg/kg/injection, schedule: Q01DX009 (ip), vehicle: saline with Tween-80
[5] = dose: 200.0 mg/kg/injection, schedule: Q01DX009 (ip), vehicle: saline with Tween-80
[6] = dose: 400.0 mg/kg/injection, schedule: Q01DX009 (ip), vehicle: other

## COc1ccccc1NC(=O)N(CCCl)N=O
dose: 0.1 mg/kg/injection, schedule: Q04DX003 (ip), vehicle: saline with Tween-80
  T/C: 110 % of control
dose: 0.2 mg/kg/injection, schedule: Q04DX003 (ip), vehicle: saline with Tween-80
  T/C: 100 % of control
dose: 0.4 mg/kg/injection, schedule: Q04DX003 (ip), vehicle: saline with Tween-80
  T/C: 105 % of control
dose: 0.8 mg/kg/injection, schedule: Q04DX003 (ip), vehicle: saline with Tween-80
  T/C: 110 % of control

## c1cc[c]([Sn]([O][Sn]([c]2ccccc2)([c]2ccccc2)[c]2ccccc2)([c]2ccccc2)[c]2ccccc2)cc1
[1]
  T/C: 95 % of control

## Cc1ccc(N)c(CSc2ccccc2)c1
dose: 50.0 mg/kg/injection, schedule: Q04DX002 (ip), vehicle: saline with Tween-80
  T/C: 95 % of control
dose: 100.0 mg/kg/injection, schedule: Q04DX002 (ip), vehicle: saline with Tween-80
  T/C: 97 % of control
dose: 200.0 mg/kg/injection, schedule: Q04DX002 (ip), vehicle: saline with Tween-80
  T/C: 98 % of control

## N#C/C(=C\c1cc(Cl)cc(Cl)c1O)c1nc2ccccc2[nH]1
[2]
  T/C: 93 % of control
[3]
  T/C: 93 % of control

## COc1cc(CCC(NC(C)=O)c2cccc(O)c(=O)c2)cc(OC)c1OC (stereo not drawn)
[4]
  T/C: 90 % of control
[2]
  T/C: 96 % of control
[3]
  T/C: 90 % of control
[5]
  T/C: 91 % of control

## OCC(CO)(CO)CBr
dose: 100.0 mg/kg/injection, schedule: Q01DX009 (ip), vehicle: saline
  T/C: 110 % of control
dose: 100.0 mg/kg/injection, schedule: Q04DX003 (ip), vehicle: saline
  T/C: 90 % of control
dose: 200.0 mg/kg/injection, schedule: Q01DX009 (ip), vehicle: saline
  T/C: 110 % of control
dose: 200.0 mg/kg/injection, schedule: Q04DX003 (ip), vehicle: saline
  T/C: 90 % of control
dose: 400.0 mg/kg/injection, schedule: Q01DX009 (ip), vehicle: saline
  T/C: 88 % of control
dose: 400.0 mg/kg/injection, schedule: Q04DX003 (ip), vehicle: saline
  T/C: 114 % of control

## CCCn1c2ccccc2c2ccccc21
dose: 100.0 mg/kg/injection, schedule: Q01DX009 (ip), vehicle: Klucel (hydroxypropylcellulose) (HPC)
  T/C: 120 % of control
dose: 200.0 mg/kg/injection, schedule: Q01DX009 (ip), vehicle: Klucel (hydroxypropylcellulose) (HPC)
  T/C: 100 % of control
dose: 400.0 mg/kg/injection, schedule: Q01DX009 (ip), vehicle: Klucel (hydroxypropylcellulose) (HPC)
  T/C: 95 % of control

## C[n+]1ccc2cc(N)c3c4ccccc4sc3c2c1
dose: 3.12 mg/kg/injection, schedule: Q01DX009 (ip), vehicle: saline with Tween-80
  T/C: 110 % of control and 119 % of control
dose: 3.13 mg/kg/injection, schedule: Q01DX009 (ip), vehicle: Klucel (hydroxypropylcellulose) (HPC)
  T/C: 116 % of control
dose: 6.25 mg/kg/injection, schedule: Q01DX009 (ip), vehicle: Klucel (hydroxypropylcellulose) (HPC)
  T/C: 123 % of control
dose: 6.25 mg/kg/injection, schedule: Q04DX003 (ip), vehicle: saline with Tween-80
  T/C: 105 % of control
dose: 12.5 mg/kg/injection, schedule: Q01DX009 (ip), vehicle: Klucel (hydroxypropylcellulose) (HPC)
  T/C: 156 % of control
dose: 12.5 mg/kg/injection, schedule: Q04DX003 (ip), vehicle: saline with Tween-80
  T/C: 112 % of control
dose: 25.0 mg/kg/injection, schedule: Q01DX009 (ip), vehicle: Klucel (hydroxypropylcellulose) (HPC)
  T/C: 170 % of control and 184 % of control
[4]
  T/C: 172 % of control
[1]
  T/C: 112 % of control

## Cc1[nH]n(CCO)c(=O)c1N=O
dose: 15.0 mg/kg/injection, schedule: Q01DX009 (ip), vehicle: saline with Tween-80
  T/C: 95 % of control
dose: 30.0 mg/kg/injection, schedule: Q01DX009 (ip), vehicle: saline with Tween-80
  T/C: 93 % of control
dose: 60.0 mg/kg/injection, schedule: Q01DX009 (ip), vehicle: saline with Tween-80
  T/C: 100 % of control

## C1CC[N-]CC1.C1CC[N-]CC1.C1CC[N-]CC1.[Cl][Rh]([Cl])[Cl]
dose: 12.5 mg/kg/injection, schedule: Q01DX009 (ip), vehicle: saline
  T/C: 156 % of control
dose: 25.0 mg/kg/injection, schedule: Q01DX009 (ip), vehicle: saline
  T/C: 157 % of control
dose: 50.0 mg/kg/injection, schedule: Q01DX009 (ip), vehicle: saline
  T/C: 161 % of control and 175 % of control

## CCOC(=O)C1=C(C)NC(C)=C(C(=O)OCC)C1c1cc(OC)c(OC)c(OC)c1
dose: 25.0 mg/kg/injection, schedule: Q01DX009 (ip), vehicle: other
  T/C: 100 % of control
dose: 50.0 mg/kg/injection, schedule: Q01DX009 (ip), vehicle: other
  T/C: 95 % of control
dose: 100.0 mg/kg/injection, schedule: Q01DX009 (ip), vehicle: other
  T/C: 96 % of control
dose: 200.0 mg/kg/injection, schedule: Q01DX009 (ip), vehicle: other
  T/C: 95 % of control
[6]
  T/C: 87 % of control

## O=C(/C=C/c1ccccc1Cl)NCC(O)CO (stereo not drawn)
[2]
  T/C: 100 % of control
[3]
  T/C: 100 % of control
[5]
  T/C: 95 % of control
[6]
  T/C: 91 % of control
dose: 400.0 mg/kg/injection, schedule: Q01DX009 (ip), vehicle: saline with Tween-80
  T/C: 90 % of control

Reference: PubChem BioAssay AID328 (DTP/NCI, 2004)
